Test results reported in patent US7417156B2, “Orally active, antimalarial, anticancer, artemisinin-derived trioxane dimers” (Johns Hopkins University, priority 2002, dated 2008).
Read-outs that look alike come from different tables or passages of the source.

What was measured:
SF-268 = test: NCI 60 cell line panel screen (SRB); type: cell-based, human
NCI-H322M = type: cell-based
MDA-MB-435 = test: NCI 60 cell line panel screen (SRB); type: cell-based, human
IGROVI = test: NCI 60 cell line panel screen (SRB); type: cell-based, human; details: for Log10LC50 / Log10TGI50: IGROVI (Ovarian Cancer); for Log10LC50: LC50: PG=−50; for Log10TGI50: TGI: PG=0; for Log10GI50: Ovarian Cancer, IGROVI
[1] = tested on: chloroquine-sensitive P. falciparum (NF54); test: Antimalarial activity in vitro, [3H]hypoxanthine incorporation; type: cell-based; details: Plasmodium falciparum, read-out: IC50
NCI-H522 = test: NCI 60 cell line panel screen (SRB); type: cell-based, human
ACHN = test: NCI 60 cell line panel screen (SRB); type: cell-based, human; details: for Log10LC50 / Log10TGI50: ACHN (Renal Cancer); for Log10LC50: LC50: PG=−50; for Log10TGI50: TGI: PG=0; for Log10GI50: Renal Cancer, ACHN
M14 = test: NCI 60 cell line panel screen (SRB); type: cell-based, human; details: for Log10TGI50: M-14 (Melanoma), TGI: PG=0
HT29 = test: NCI 60 cell line panel screen (SRB); type: cell-based, human; details: for Log10GI50: Colon Cancer, HT29; for Log10LC50: LC50: PG=−50
HCT-116 = test: NCI 60 cell line panel screen (SRB); type: cell-based, human; details: for Log10GI50: Colon Cancer, HCT-116; for Log10LC50 / Log10TGI50: HCT-116 (Colon Cancer); for Log10LC50: LC50: PG=−50; for Log10TGI50: TGI: PG=0
UO-31 = test: NCI 60 cell line panel screen (SRB); type: cell-based, human; details: for Log10GI50: Renal Cancer, UO-31; for Log10LC50 / Log10TGI50: UO-31 (Renal Cancer); for Log10LC50: LC50: PG=−50; for Log10TGI50: TGI: PG=0
HCT-15 = test: NCI 60 cell line panel screen (SRB); type: cell-based, human; details: for Log10GI50: Colon Cancer, HCT-15; for Log10LC50 / Log10TGI50: HCT-15 (Colon Cancer); for Log10LC50: LC50: PG=−50; for Log10TGI50: TGI: PG=0
60 cell line panel = type: cell-based; details: for Log10LC50 Delta / Log10LC50 Range / Log10TGI50 Delta / Log10TGI50 Range: 60 cell line panel
MCF7 = test: NCI 60 cell line panel screen (SRB); type: cell-based, human; details: for Log10GI50: Breast Cancer, MCF7; for Log10LC50 / Log10TGI50: MCF7 (Breast Cancer); for Log10LC50: LC50: PG=−50; for Log10TGI50: TGI: PG=0
MALME-3M = test: NCI 60 cell line panel screen (SRB); type: cell-based, human; details: for Log10LC50 / Log10TGI50: MALME-3M (Melanoma); for Log10LC50: LC50: PG=−50; for Log10TGI50: TGI: PG=0
OVCAR-3 = test: NCI 60 cell line panel screen (SRB); type: cell-based, human
PC-3 = test: NCI 60 cell line panel screen (SRB); type: cell-based, human; details: for Log10LC50 / Log10TGI50: PC-3 (Prostate Cancer); for Log10LC50: LC50: PG=−50; for Log10TGI50: TGI: PG=0; for Log10GI50: Prostate Cancer, PC-3
NCI/ADR-RES = test: NCI 60 cell line panel screen (SRB); type: cell-based, human
A549/ATCC = test: NCI 60 cell line panel screen (SRB); type: cell-based, human; details: for Log10LC50 / Log10TGI50: A549/ATCC (Non-Small Cell Lung Cancer); for Log10LC50: LC50: PG=−50; for Log10TGI50: TGI: PG=0; for Log10GI50: Non-Small Cell Lung Cancer, A549/ATCC
MDA-MB231/ATCC = test: NCI 60 cell line panel screen (SRB); type: cell-based, human
BT-549 = test: NCI 60 cell line panel screen (SRB); type: cell-based, human
[2] = mean value over the 60 cell line panel

C[C@@H]1CC[C@H]2[C@@H](C)C(CC(O)(COC(=O)CCC(=O)O)CC3OC4O[C@]5(C)CC[C@H]6[C@H](C)CC[C@@H]([C@H]3C)C46OO5)OC3O[C@]4(C)CCC1C32OO4 (stereo partly shown) [Compound 9, tertiary alcohol primary succinate ester]
Log10GI50 (SF-268; CNS Cancer, SF-268): −5.48
Log10LC50 (SF-268; SF-268 (CNS Cancer), LC50: PG=−50): >−4.30 log10M
Log10TGI50 (SF-268; SF-268 (CNS Cancer), TGI: PG=0): >−4.30 log10M
Log10TGI50 (NCI-H322M; NCI-H322M (Non-Small Cell Lung Cancer), TGI: PG=0): >−4.30 log10M
Log10GI50 (NCI-H322M; Non-Small Cell Lung Cancer, NCI-H322M): −5.07
Log10GI50 (MDA-MB-435; Breast Cancer, MDA-MB-435): <−8.30
Log10LC50 (MDA-MB-435; MDA-MB-435 (Breast Cancer), LC50: PG=−50): >−4.30 log10M
Log10TGI50 (MDA-MB-435; MDA-MB-435 (Breast Cancer), TGI: PG=0): >−4.30 log10M
Log10LC50 (IGROVI): >−4.30 log10M
Log10TGI50 (IGROVI): >−4.30 log10M
Log10GI50 (IGROVI): −4.97
IC50 ([1]; NF54, Table I, NF54 strain): 3 nM
Log10TGI50 (NCI-H522; NCI-H522 (Non-Small Cell Lung Cancer), TGI: PG=0): >−4.30 log10M
Log10LC50 (NCI-H522; NCI-H-522 (Non-Small Cell Lung Cancer), LC50: PG=−50): >−4.30 log10M
Log10GI50 (NCI-H522; Non-Small Cell Lung Cancer, NCI-H522): −4.91
Log10LC50 (ACHN): >−4.30 log10M
Log10TGI50 (ACHN): −4.74 log10M
Log10GI50 (ACHN): −6.67
Log10TGI50 (M14): >−4.30 log10M
Log10GI50 (HT29): <−8.30
Log10LC50 (HT29; HT29 (Colon Cancer)): >−4.30 log10M
Log10GI50 (HCT-116): <−8.30
Log10LC50 (HCT-116): >−4.30 log10M
Log10TGI50 (HCT-116): >−4.30 log10M
Log10GI50 (UO-31): −5.05
Log10LC50 (UO-31): >−4.30 log10M
Log10TGI50 (UO-31): >−4.30 log10M
Log10GI50 (HCT-15): <−8.30
Log10LC50 (HCT-15): >−4.30 log10M
Log10TGI50 (HCT-15): −5.01 log10M
Log10GI50 Delta (60 cell line panel): 1.28
Log10GI50 Range (60 cell line panel): 3.94
Log10LC50 Delta (60 cell line panel): 0.29
Log10LC50 Range (60 cell line panel): 0.30
Log10TGI50 Delta (60 cell line panel): 3.58
Log10TGI50 Range (60 cell line panel): 4.00
growth inhibition in words (60 cell line panel; colon cancer KM12, ovarian cancer OVCAR 3, breast cancer MDA-MB-435): selectively and strong inhibitory
Log10GI50 MG MID (60 cell line panel; mean over panel): −7.02
Log10LC50 MG MID (60 cell line panel; [2]): −4.31 log10M
Log10TGI50 MG MID (60 cell line panel; [2]): −4.72 log10M
Log10GI50 (MCF7): <−8.30
Log10LC50 (MCF7): >−4.30 log10M
Log10TGI50 (MCF7): >−4.30 log10M
Log10LC50 (MALME-3M): >−4.30 log10M
Log10TGI50 (MALME-3M): −5.14 log10M
Log10GI50 (MALME-3M; Melanoma, MALME-3M): <−8.30
Log10LC50 (OVCAR-3; OVCAR-3 (Ovarian Cancer), LC50: PG=−50): >−4.30 log10M
Log10TGI50 (OVCAR-3; OVCAR-3 (Ovarian Cancer), TGI: PG=0): <−8.30 log10M
Log10GI50 (OVCAR-3; Ovarian Cancer, OVCAR-3): <−8.30
Log10LC50 (PC-3): >−4.30 log10M
Log10TGI50 (PC-3): >−4.30 log10M
Log10GI50 (PC-3): <−8.30
Log10GI50 (NCI/ADR-RES; Breast Cancer, NCI/ADR-RES): −5.61
Log10LC50 (NCI/ADR-RES; NCI/ADR-RES (Breast Cancer), LC50: PG=−50): >−4.30 log10M
Log10TGI50 (NCI/ADR-RES; NCI/ADR-RES (Breast Cancer), TGI: PG=0): >−4.30 log10M
Log10LC50 (A549/ATCC): >−4.30 log10M
Log10TGI50 (A549/ATCC): >−4.30 log10M
Log10GI50 (A549/ATCC): −4.86

C[C@@H]1CC[C@H]2[C@@H](C)C(=O)O[C@@H]3O[C@]4(C)CC[C@@H]1[C@]32OO4 [Artemisinin]
Log10LC50 (IGROVI): >−4.00 log10M
Log10TGI50 (IGROVI): >−4.00 log10M
Log10GI50 (IGROVI): −4.31
IC50 ([1]; NF54, Table I, NF54 strain): 9.2 ± 1.7 nM
IC50 ([1]; NF54, running text b206, artemisinin): 7.7 nM
Log10LC50 (ACHN): >−4.00 log10M
Log10TGI50 (ACHN): >−4.00 log10M
Log10GI50 (ACHN): >−4.00
Log10LC50 (M14; M14 (Melanoma), LC50: PG=−50): >−4.00 log10M
Log10TGI50 (M14): >−4.00 log10M
Log10GI50 (HT29): >−4.00
Log10LC50 (HT29; HT29 (Colon Cancer)): >−4.00 log10M
Log10TGI50 (HT29; HT29 (Colon Cancer), TGI: PG=0): >−4.00 log10M
Log10GI50 (HCT-116): −4.18
Log10LC50 (HCT-116): >−4.00 log10M
Log10TGI50 (HCT-116): >−4.00 log10M
Log10GI50 (MDA-MB231/ATCC; Breast Cancer, MDA-MB231/ATCC): −4.20
Log10LC50 (MDA-MB231/ATCC; MDA-MB231/ATCC (Breast Cancer), LC50: PG=−50): >−4.00 log10M
Log10TGI50 (MDA-MB231/ATCC; MDA-MB231/ATCC (Breast Cancer), TGI: PG=0): >−4.00 log10M
Log10GI50 (UO-31): −4.06
Log10LC50 (UO-31): >−4.00 log10M
Log10TGI50 (UO-31): >−4.00 log10M
Log10GI50 (HCT-15): >−4.00
Log10LC50 (HCT-15): >−4.00 log10M
Log10TGI50 (HCT-15): >−4.00 log10M
Log10GI50 Delta (60 cell line panel): −4.07
Log10GI50 Range (60 cell line panel): 0.73
Log10LC50 Delta (60 cell line panel): −4.00
Log10LC50 Range (60 cell line panel): 0.00
Log10TGI50 Delta (60 cell line panel): −4.00
Log10TGI50 Range (60 cell line panel): 0.06
Log10GI50 (MCF7): >−4.00
Log10LC50 (MCF7): >−4.00 log10M
Log10TGI50 (MCF7): >−4.00 log10M
Log10LC50 (BT-549; BT-549 (Breast Cancer), LC50: PG=−50): >−4.00 log10M
Log10TGI50 (BT-549; BT-549 (Breast Cancer), TGI: PG=0): >−4.00 log10M
Log10GI50 (BT-549; Breast Cancer, BT-549): −4.06
Log10LC50 (MALME-3M): >−4.00 log10M
Log10TGI50 (MALME-3M): −4.06 log10M
Log10LC50 (PC-3): >−4.00 log10M
Log10TGI50 (PC-3): −4.00 log10M
Log10GI50 (PC-3): −4.17
Log10LC50 (A549/ATCC): >−4.00 log10M
Log10TGI50 (A549/ATCC): >−4.00 log10M
Log10GI50 (A549/ATCC): −4.17
